The target in one assay is RIPK1 (Homo sapiens (Human), UniProt Q13546). As to the kind of experiment: RIPK1 ADP-Glo biochemical kinase assay. How it is done: The final reaction volume was 5.0ul.
Adding 5 μl of ADP-Glo™ terminated the reaction.

A further assay relates to L929 cells. The experiment in a line: L929 cell necroptosis assay (TNFa + zVAD, CellTiter-Glo). The class given is cell-based, murine. The settings on record: TNFa + zVAD, read-out: L929-CTG-recovery, L929, TNFa + zVAD (IC50). Put shortly:
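Murine L929 cells, plated 18 h beforehand at 10K cells/well in RPMI 1640 with 10% FBS, were switched to medium containing 40 uM zVAD-fmk and given compound from 4-fold serial dilutions. Viability after 18 h of TNFa stimulation at 37° C was read by CellTiter-Glo luminescence.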

For a further assay, the system named is U937 cells. The experiment in a line: U937 cell necroptosis assay (TNFa + zVAD, CellTiter-Glo). The settings on record: TNFa + zVAD, read-out: U937 Zvad TNF CTG Recovery, U937, TNFa + zVAD (IC50). The class given is cell-based, human. Put shortly: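 Human U937 and murine L929 cells in RPMI 1640/10% FBS were pre-incubated 1 h at 37 °C with serially diluted compound plus zVAD-fmk (U937 plated with 60 uM, L929 medium with 40 uM), then stimulated with 2 ng/mL TNFa (final). Viability read by CellTiter-Glo luminescence after 18 h.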

[1] abbreviates: read-out: RIPK1 ADP-Glo Kinase (IC50).
Setting [2] is: Homo sapiens, U-937, U937 cells.

Counter-ions that a name gives are not always drawn. Like-named read-outs stand apart in the source and are kept apart here.

Sequence of RIPK1 (Q13546 whole entry, species assumed): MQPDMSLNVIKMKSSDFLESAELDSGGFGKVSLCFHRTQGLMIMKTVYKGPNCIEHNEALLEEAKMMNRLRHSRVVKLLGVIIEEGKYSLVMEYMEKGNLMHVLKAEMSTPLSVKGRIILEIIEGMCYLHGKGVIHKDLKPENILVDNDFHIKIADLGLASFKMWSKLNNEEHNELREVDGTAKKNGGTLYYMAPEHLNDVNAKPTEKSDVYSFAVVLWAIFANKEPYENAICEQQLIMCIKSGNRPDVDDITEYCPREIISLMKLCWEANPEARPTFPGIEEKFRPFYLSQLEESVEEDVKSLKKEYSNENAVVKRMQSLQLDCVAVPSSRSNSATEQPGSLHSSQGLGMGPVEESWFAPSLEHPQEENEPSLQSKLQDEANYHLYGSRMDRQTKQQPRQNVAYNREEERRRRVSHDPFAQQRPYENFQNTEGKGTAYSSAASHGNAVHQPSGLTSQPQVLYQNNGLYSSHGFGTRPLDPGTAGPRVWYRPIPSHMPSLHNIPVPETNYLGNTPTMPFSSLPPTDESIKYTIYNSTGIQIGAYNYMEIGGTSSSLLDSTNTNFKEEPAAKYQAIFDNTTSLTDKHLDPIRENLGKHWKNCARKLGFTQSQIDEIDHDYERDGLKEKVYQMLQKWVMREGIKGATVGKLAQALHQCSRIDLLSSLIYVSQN

Turning to `CN1C(=O)[C@@H](NC(=O)c2cc(Oc3ccccc3)ccn2)COc2ccc(N3CC4(CCOCC4)C3)cc21` [II-28, (S)—N-(5-methyl-4-oxo-7-(7-oxa-2-azaspiro[3.5]nonan-2-yl)-2,3,4,5-tetrahydrobenzo[b][1,4]oxazepin-3-yl)-4-phenoxypicolinamide], the IC50 stood at 16.1 nM on RIPK1 (setting [1]); 2220 nM in the assay with L929 cells (Mus musculus, L929 cells); 8.3 nM in the assay on U937 cells (setting [2]).

Take `CN1C(=O)[C@@H](NC(=O)c2cc(Oc3ccccc3)ccn2)COc2ccc(C#CC(C)(C)CO)cc21` [Compound I-109, (S)—N-(7-(4-hydroxy-3,3-dimethylbut-1-yn-1-yl)-5-methyl-4-oxo-2,3,4,5-tetrahydrobenzo[b][1,4]oxazepin-3-yl)-4-phenoxypicolinamide]: the concentration for half-maximal inhibition (IC50) against RIPK1 is 32.1 nM; in the assay on L929 cells (Mus musculus, L929, L929 cells) it was 24.3 nM; with U937 cells (setting [2]), 0.4 nM.

As to `CN1C(=O)[C@@H](NC(=O)c2cc(Oc3c(F)cccc3F)ccn2)COc2ccc(C#CC(C)(C)O)cc21` [Compound I-118, (S)-4-(2,6-difluorophenoxy)-N-(7-(3-hydroxy-3-methylbut-1-yn-1-yl)-5-methyl-4-oxo-2,3,4,5-tetrahydrobenzo[b][1,4]oxazepin-3-yl)picolinamide], the IC50 was determined as 27.6 nM at RIPK1 (setting [1]); 83 nM with L929 cells (Mus musculus, L929, L929 cells); 1 nM with U937 cells (setting [2]).

In the case of `CN(C)CC#Cc1ccc2c(c1)N(C)C(=O)[C@@H](NC(=O)c1cc(Oc3ccccc3)ccn1)CO2` [II-36, (S)—N-(7-(3-(dimethylamino)prop-1-yn-1-yl)-5-methyl-4-oxo-2,3,4,5-tetrahydrobenzo[b][1,4]oxazepin-3-yl)-4-phenoxypicolinamide], the IC50 at RIPK1 (setting [1]) was determined as 38.9 nM; in the assay on L929 cells (Mus musculus, L929, L929 cells), 132 nM; with U937 cells (setting [2]) it was 1.6 nM.

In the case of `CN1C(=O)[C@@H](NC(=O)n2cc(Cc3ccccc3)cn2)COc2ccc(C#CC3(O)CCC3)cc21` [Compound I-219, (S)-4-Benzyl-N-(7-((1-hydroxycyclobutyl)ethynyl)-5-methyl-4-oxo-2,3,4,5-tetrahydrobenzo[b][1,4]oxazepin-3-yl)-1H-pyrazole-1-carboxamide], the IC50 was 28.4 nM at RIPK1 (setting [1]); 23.6 nM with L929 cells (Mus musculus, L929, L929 cells); 0.6 nM with U937 cells (setting [2]).

With `CN1C(=O)[C@@H](NC(=O)c2n[nH]c(Cc3ccccc3)n2)COc2cc(C#CC(C)(C)O)ccc21` [Compound I-63, (S)-5-benzyl-N-(8-(3-hydroxy-3-methylbut-1-yn-1-yl)-5-methyl-4-oxo-2,3,4,5-tetrahydrobenzo[b][1,4]oxazepin-3-yl)-1H-1,2,4-triazole-3-carboxamide], the IC50 is 30.3 nM at RIPK1 (setting [1]); 0.3 nM in the assay with L929 cells (Mus musculus, L929, L929 cells); 1 nM with U937 cells (setting [2]).

With `CCN1C(=O)[C@@H](NC(=O)c2n[nH]c(Cc3ccccc3)n2)COc2ccc(C#CC(C)(C)O)cc21` [Compound I-91, (S)-5-benzyl-N-(5-ethyl-7-(3-hydroxy-3-methylbut-1-yn-1-yl)-4-oxo-2,3,4,5-tetrahydrobenzo[b][1,4]oxazepin-3-yl)-1H-1,2,4-triazole-3-carboxamide], the IC50 on RIPK1 (setting [1]) was found to be 388 nM; in the assay on L929 cells (Mus musculus, L929, L929 cells) it was 3.7 nM; in the assay with U937 cells (setting [2]) it was 19.8 nM.

Consider `C=C(C)C#Cc1ccc2c(c1)N(C)C(=O)[C@@H](NC(=O)c1cc(Oc3ccccc3)ccn1)CO2` [Compound I-99, (S)—N-(5-methyl-7-(3-methylbut-3-en-1-yn-1-yl)-4-oxo-2,3,4,5-tetrahydrobenzo[b][1,4]oxazepin-3-yl)-4-phenoxypicolinamide], for which the concentration for half-maximal inhibition (IC50) against RIPK1 stood at 126 nM; with L929 cells (Mus musculus, L929, L929 cells), 116 nM; in the assay on U937 cells (setting [2]), 1.3 nM.

In the case of `CN1C(=O)[C@@H](NC(=O)c2cc(Oc3ccc(C#N)cc3)ccn2)COc2ccc(C#CC(C)(C)O)cc21` [II-18, (S)-4-(4-cyanophenoxy)-N-(7-(3-hydroxy-3-methylbut-1-yn-1-yl)-5-methyl-4-oxo-2,3,4,5-tetrahydrobenzo[b][1,4]oxazepin-3-yl)picolinamide], the 50% inhibitory concentration (IC50) on RIPK1 (setting [1]) amounted to 51.8 nM; with L929 cells (Mus musculus, L929, L929 cells), 6640 nM; in the assay on U937 cells (setting [2]), 286 nM.

In the case of `CN1C(=O)[C@@H](NC(=O)c2n[nH]c(Cc3ccccc3)n2)COc2ccc(C#CC(C)(C)O)cc21` [Compound I-36, (S)-5-benzyl-3-((7-(3-hydroxy-3-methylbut-1-yn-1-yl)-5-methyl-4-oxo-2,3,4,5-tetrahydrobenzo[b][1,4]oxazepin-3-yl)carbamoyl)-1,2,4-triazol-1-ide], the half-inhibitory concentration (IC50) on RIPK1 (setting [1]) was 33.8 nM; in the assay with L929 cells (L929 cells) it was 1.4 nM; in the assay on U937 cells (U937 cells), 2.2 nM.

For the compound `CN1C(=O)[C@@H](NC(=O)c2n[nH]c(Cc3ccc(F)cc3F)n2)COc2ccc(CCC(=O)N3CCCC3)cc21` [Compound I-34, (S)-5-(2,4-difluorobenzyl)-N-(5-methyl-4-oxo-7-(3-oxo-3-(pyrrolidin-1-yl)propyl)-2,3,4,5-tetrahydrobenzo[b][1,4]oxazepin-3-yl)-1H-1,2,4-triazole-3-carboxamide], the IC50 amounted to 49.2 nM at RIPK1 (setting [1]); 9590 nM with L929 cells (Mus musculus, L929, L929 cells); 22.2 nM in the assay with U937 cells (setting [2]).

For `CN1C(=O)[C@@H](NC(=O)c2cc(Oc3ccccc3)ccn2)COc2ccc(CN3CCC4(CCOCC4)CC3)cc21` [Compound I-149, (S)—N-(7-((3-oxa-9-azaspiro[5.5]undecan-9-yl)methyl)-5-methyl-4-oxo-2,3,4,5-tetrahydrobenzo[b][1,4]oxazepin-3-yl)-4-phenoxypicolinamide], the IC50 against RIPK1 was found to be 39.6 nM; in the assay on L929 cells (Mus musculus, L929, L929 cells), 11600 nM; with U937 cells (setting [2]), 30 nM.

Take `CN1C(=O)[C@@H](NC(=O)n2cc(Cc3ccccc3)cn2)COc2ccc(C#CC(C)(C)C)cc21` [Compound I-212, (S)-4-Benzyl-N-(7-(3,3-dimethylbut-1-yn-1-yl)-5-methyl-4-oxo-2,3,4,5-tetrahydrobenzo[b][1,4]oxazepin-3-yl)-1H-pyrazole-1-carboxamide]: the 50% inhibitory concentration (IC50) on RIPK1 (setting [1]) amounted to 154 nM; in the assay on L929 cells (Mus musculus, L929, L929 cells), 267 nM; in the assay on U937 cells (setting [2]), 4.3 nM.

As for `CN1C(=O)[C@@H](NC(=O)n2cc(Cc3ccc(F)cc3F)cn2)COc2ccc(C#CC(C)(C)CN)cc21` [Compound I-241, (S)—N-(7-(4-Amino-3,3-dimethylbut-1-yn-1-yl)-5-methyl-4-oxo-2,3,4,5-tetrahydrobenzo[b][1,4]oxazepin-3-yl)-4-(2,4-difluorobenzyl)-1H-pyrazole-1-carboxamide hydrochloride], the IC50 was 50.1 nM on RIPK1; 2100 nM in the assay with L929 cells (Mus musculus, L929, L929 cells); 62.6 nM in the assay on U937 cells (setting [2]).

Regarding `Cc1cc(Oc2ccccc2)cc(C(=O)N[C@H]2COc3ccc(C#CC(C)(C)O)cc3N(C)C2=O)n1` [Compound I-119, (S)—N-(7-(3-hydroxy-3-methylbut-1-yn-1-yl)-5-methyl-4-oxo-2,3,4,5-tetrahydrobenzo[b][1,4]oxazepin-3-yl)-6-methyl-4-phenoxypicolinamide], the 50% inhibitory concentration (IC50) at RIPK1 (setting [1]) was determined as 59.8 nM; with L929 cells (Mus musculus, L929, L929 cells), 4050 nM; in the assay on U937 cells (setting [2]), 14.6 nM.

`CN1C(=O)[C@@H](NC(=O)c2ncn(Cc3ccccc3)n2)COc2ccc(CN3CCn4c(nnc4C(F)(F)F)C3)cc21` [Compound I-46, (S)-1-benzyl-N-(5-methyl-4-oxo-7-((3-(trifluoromethyl)-5,6-dihydro-[1,2,4]triazolo[4,3-a]pyrazin-7(8H)-yl)methyl)-2,3,4,5-tetrahydrobenzo[b][1,4]oxazepin-3-yl)-1H-1,2,4-triazole-3-carboxamide]: the concentration for half-maximal inhibition (IC50) at RIPK1 (setting [1]) is 43.7 nM; in the assay on L929 cells (Mus musculus, L929, L929 cells) it was 0.4 nM; with U937 cells (setting [2]), 1.2 nM.

(Values after US11407736B2 (priority 2019, dated 2022).)
